# Reference: US9132191B2, “Compositions and methods of preventing or ameliorating abnormal thrombus formation and cardiovascular disease” (Yale University, priority 2011, dated 2015)
# Columns and labels:
# [1] = system: washed platelet; test: Aggregometry of washed platelets incubated with AR inhibitors (Example 12); assay type: cell-based; settings: Homo sapiens, 10 μM inhibitor, 1 hour at 37° C., collagen 1 μg/mL, light transmission 5 min, read-out: % reduction (platelet aggregation, light transmission)
# Method: Platelet-poor plasma (PPP) was obtained by centrifugation of the rest of the blood at 1400 g at 25° C. for 10 min. The PRP was adjusted with PPP to 2−3×10^8 platelets/mL suspensions. For the washed platelets, PRP was obtained by centrifugation at 250 g for 15 min, and platelets were sedimented at 1,000 g for 15 min, and then resuspended in washing buffer (103 mmol/L NaCl, 5 mmol/L KCl, 1 mmol/L MgCl2, 5 mmol/L glucose, 36 mmol/L citric acid) at pH 6.5 containing 3.5 mg/mL bovine serum albumin (Sigma). After sedimentation, the platelets were washed twice in this buffer and resuspended at 2−3×10^8 platelets/mL in the buffer composed of 5 mmol/L HEPES, 137 mmol/L NaCl, 2 mmol/L KCl, 1 mmol/L MgCl2, 12 mmol/L NaHCO3, 0.3 mmol/L NaH2PO4, 5.5 mmol/L glucose, pH 7.4, containing 3.5 mg/mL BSA (Saxena et al., 1989, Science 243:1596-1599).
# Washed platelet (1×10^8) were incubated with AR inhibitors for 1 hour at 37° C. For aggregometry studies, 0.5 μL of collagen solution (with a final concentration of 1 μg/mL) was added into 500 μL of washed platelet, and then the light transmission was measured for 5 min. […] The percentage of platelet aggregation, as measured in terms of light transmission, is summarized in FIG. 17, and representative tracings are depicted in FIG. 18.
# [2] = biological target: aldose reductase (Homo sapiens, UniProt P15121); settings: aldose reductase inhibitor IC50; no method given; cited from earlier work
# [3] = system: human platelets; test: Collagen-induced platelet aggregation (light transmission, Lumi-aggregometer); assay type: cell-based; settings: NG or HG 90 min; 1 μg/mL collagen; SB239063 50 μmol/L, U73122 5 μmol/L, quercetin 10 μmol/L, SQ29548 10 μmol/L, NAC, apocynin 100 μmol/L
# Method: Venous blood was drawn from volunteers at Yale University Medical School, free from medication known to interfere with platelet function. […] PRP was obtained by centrifugation of blood at 250 g at 37° C. for 15 min and the platelet count in the PRP was estimated by an automated cell counter.
# Platelet-poor plasma (PPP) was obtained by centrifugation of the rest of the blood at 1400 g at 25° C. for 10 min. The PRP was adjusted with PPP to 2−3×10^8 platelets/mL suspensions.
# Platelet aggregation was monitored at 37° C. with constant stirring (1,200 rpm) in a dual-channel Lumi-aggregometer (Chrono-Log model 700). Platelet aggregation was measured as the increase in light transmission for 10 min, starting with the addition of 0.5 μL of 1 mg/mL collagen (Chrono-Log) as a proaggregatory stimulus. For measuring ADP-stimulated platelet aggregation, 1 μM ADP (Chrono-Log) was used. The maximum aggregation was expressed as percentage of maximum light transmission, with non-stimulated platelet-rich plasma being 0% and platelet-poor plasma 100%.
# [4] = system: p38α MAPK; test: p38α MAPK phosphorylation in collagen-stimulated platelets (phospho-kinase array, Western blot); assay type: cell-based, human; settings: NG and HG; 1 μg/mL collagen 10 min; epalrestat 10 μmol/L, U73122, NAC 1 mmol/L, quercetin 10 μmol/L
# Method: Platelets were homogenized in the lysis buffer (25 mmol/L Tris HCl, pH 7.6, 150 mmol/L NaCl, 1% NP-40, 1% sodium deoxycholate, 0.1% SDS) with the addition of 0.1% protease inhibitor and 0.1% phosphatase inhibitor (Thermo Scientific). The supernatant was collected after centrifugation at 13,000 rpm for 15 min at 4° C. The samples are loaded in 4×SDS-Laemmli sample buffers and boiled for 10 min. Equal amounts of total extracts were subjected to SDS-PAGE. The proteins were transferred to nitrocellulose membrane and probed with the indicated antibodies, and the antigen-antibody complex was detected by enhanced chemiluminescence reagents (Thermo Scientific).
# (§1) Primary antibodies against the following proteins were diluted and used according to the manufacturer's instructions: AR (sc-17732, Santa Cruz Biotechnology), PKC α (sc-208, Santa Cruz Biotechnology) and its phosphorylated form (sc-136018, Thr638, Santa Cruz Biotechnology), PKC βII (NB110-57358, Novus Biologicals) and its phosphorylated form (NSB964, Thr641, Novus Biologicals), PKC δ (2058, Cell Signaling) and its phosphorylated form (9376, Ser643, Cell Signaling), PLC-γ1 (H00005335-A01, Novus Biologicals) and its phosphorylated form (07866, Tyr783, Millipore), PLC-γ2 (NB110-66669, Novus Biologicals) and its phosphorylated form (NB110-57424, Tyr1217, Novus Biologicals), p38α MAPK (9212, Cell Signaling) and its phosphorylated form (AF869, T180/Y182, R&D Systems), and TX receptor (NBP1-40198, Novus Biologicals). Secondary antibodies against rabbit and mouse IgG (Thermo Scientific) were diluted 1:5000 before use. The membrane was re-probed with antibodies against Na^+/K^+-ATPase (NB300-147, Novus Biologicals), a plasma membrane marker, and GAPDH (sc-20357, Santa Cruz Biotechnology), a cytoplasmic marker, for normalization.
# The human phospho-kinase array was performed according to the manufacturer's instruction (R&D Systems). […] The signals for the amount of phosphorylated proteins bound were measured by the chemiluminescent detection method.
# [5] = system: human platelets; test: Oxidative stress and superoxide level in collagen-stimulated platelets; assay type: cell-based; settings: NG and HG, epalrestat 10 μmol/L, 10 mmol/L NAC, 100 μmol/L apocynin
# Method: The oxidative stress and superoxide level was measured by a commercial kit according to the manufacturer's instruction (Total ROS/Superoxide Detection Kit, Enzo Life Sciences). Platelets were sedimented by centrifugation at 400 g for 5 min, and then washed. The washed platelets were incubated with 1 μmol/L ROS/Superoxide detection mix for 60 min at 37° C. in the presence or absence of 1 μg/mL collagen.
# [6] = system: thromboxane receptor (TP); test: Surface expression of thromboxane receptor in collagen-stimulated platelets; assay type: cell-based, human; settings: HG; 1 μg/mL collagen; epalrestat 10 μmol/L, NAC, apocynin
# Method: as §1
# Platelets were sedimented by centrifugation at 2,500 g for 5 min. The membrane and cytosolic fractions of total extracts were separated using the subcellular protein fractionation kit (Thermo Scientific). […]
# [7] = system: human platelets; test: Thromboxane biosynthesis (TXB2 EIA in platelet supernatant); assay type: cell-based; settings: NG or HG; 1 μg/mL collagen; U73122 5 μmol/L, SB239063 50 μmol/L, SQ29548 10 μmol/L
# Method: Platelets were sedimented by centrifugation at 2,500 g for 5 min, and the supernatant was harvested for the measurement of TX levels. Since TXA2 is rapidly hydrolyzed into TXB2, the level of TXB2 was measured using TXB2 EIA kit according to the manufacturer's ELISA instructions (Cayman Chemical).
# [8] = biological target: T1, platelet COX-1 (Homo sapiens, UniProt P23219); test: Residual serum TXB2 generation in clotted whole blood (index of platelet COX-1 activity); assay type: cell-based
# T1 construct: in whole blood allowed to clot for 1 h at 37° C; (serum TXB2) which is an index of maximal capacity of platelets; endogenous in cells; host or cells: platelets in whole blood of diabetic patients and healthy subjects
# T1 sequence (P23219 24-599): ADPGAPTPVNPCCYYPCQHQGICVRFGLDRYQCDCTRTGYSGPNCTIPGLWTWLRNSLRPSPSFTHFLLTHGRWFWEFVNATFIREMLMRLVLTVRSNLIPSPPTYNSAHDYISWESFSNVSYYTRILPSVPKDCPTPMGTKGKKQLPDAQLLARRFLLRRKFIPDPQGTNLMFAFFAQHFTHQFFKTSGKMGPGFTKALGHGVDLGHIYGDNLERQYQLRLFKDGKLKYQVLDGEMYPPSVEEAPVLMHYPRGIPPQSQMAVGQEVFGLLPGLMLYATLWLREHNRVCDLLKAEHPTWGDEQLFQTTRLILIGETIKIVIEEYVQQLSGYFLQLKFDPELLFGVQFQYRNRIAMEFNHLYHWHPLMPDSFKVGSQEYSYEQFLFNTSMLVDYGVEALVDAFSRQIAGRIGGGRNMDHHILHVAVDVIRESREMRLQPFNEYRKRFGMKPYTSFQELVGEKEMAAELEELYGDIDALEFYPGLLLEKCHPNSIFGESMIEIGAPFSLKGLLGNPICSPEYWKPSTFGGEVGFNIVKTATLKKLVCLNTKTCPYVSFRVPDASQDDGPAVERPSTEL
# Text: Patients with the presence of type 2 diabetes (n=102) were recruited from the Hospital Policlinico G.B. Rossi (Verona, Italy) and San Pio da Pietrelcina Hospital (Vasto, Italy). Exclusion criteria included concurrent cancer, inflammatory disorder, immunological disorder, surgery or major trauma in the previous month or use of nonsteroidal anti-inflammatory drugs (NSAIDs) or corticosteroids in the previous month. Both the diabetic population and the severe cardiovascular disease population were chronically treated with low dose aspirin for at least one month (enteric coated aspirin 100 mg for at least 7 consecutive days). After recruitment the patients received a standard oral dose of 100 mg for seven days at 8.00 pm. […] The 10 healthy subjects recruited were from the staff of Hospital Policlinico G.B. Rossi (Verona Italy) with normal ECG and echocardiograms and no evidence of atherosclerosis by carotid artery sonography. The healthy subjects were all treated with aspirin 100 mg daily for 1 week.
# (serum TXB2) which is an index of maximal capacity of platelets to generate TXB2.
# In order to verify whether in these patients higher generation of platelet TXB2 was due to the phenomenon of aspirin resistance which implies that the aspirin target, i.e., COX-1, is less sensitive to inactivation by aspirin, residual generation of TXB2 was assessed after adding aspirin (50 μg/mL) in vitro.
smiles,measurement,setting,value
"O=C1CC2(C(=O)N1)C(=O)N(Cc1ccc(Br)cc1F)C(=O)c1ccc(F)cc12 (racemic) [IDD 62, (±)-2-(4-Bromo-2-fluorobenzyl)-6-fluorospiro[1,2,3,4-tetrahydroisoquinoline-4,3′-pyrrolidine]-1,2′,3,5′-tetraone]",inhibition at 10 µM,[1],59%
"O=C1NC(=O)[C@@]2(CCOc3ccc(F)cc32)N1 [IDD 60, (4S)-6-Fluoro-2,3-dihydro-2′H,5′H-spiro[chromene-4,4′-imidazolidine]-2′,5′-dione]",inhibition at 10 µM,[1],67%
"COc1ccc2c(C(=S)N(C)CC(=O)O)cccc2c1C(F)(F)F [IDD 63, N-{[6-methoxy-5-(trifluoromethyl)-1-naphthyl]carbothioyl}-N-methylglycine]",inhibition at 10 µM,[1],78%
"O=C(O)Cc1nn(Cc2nc3cc(C(F)(F)F)ccc3s2)c(=O)c2ccccc12 [IDD 65, 3,4-Dihydro-4-oxo-3-[[5-(trifluoromethyl)-2-benzothiazolyl]methyl]-1-phthalazineacetic acid]",inhibition at 10 µM,[1],50%
"CCCCCOc1ccc(C2SC(=O)NC2=O)cc1OCC (centres unmarked) [IDD 73, 5-[3-Ethoxy-4-(pentyloxy)phenyl]-2,4-thiazolidinedione]",inhibition at 10 µM,[1],54%
same,IC50,[2],294 nM
"O=C(O)Cn1c(=O)n(Cc2ccc(Br)cc2F)c(=O)c2ccc(Cl)cc21 [IDD 148, 3-(2-Fluoro-4-bromobenzyl)-7-chloro-2,4(1H,3H)-dioxoquinazoline-1-acetic acid]",inhibition at 10 µM,[1],61%
"O=C(O)CN1C(=O)C(=O)N(Cc2cccc([N+](=O)[O-])c2)C1=O [IDD 314, 3-(3-nitrobenzyl)-2,4,5-trioxoimidazolidine-1-acetic acid]",inhibition at 10 µM,[1],52%
same,IC50,[2],718 nM
"O=C(O)Cn1cc(Cc2nc3c(F)c(F)cc(F)c3s2)c2ccccc21 [IDD 676, [3-(4,5,7-Trifluorobenzothiazol-2-ylmethyl)indol-1-yl]acetic acid]",inhibition at 10 µM,[1],54%
"CC(=O)N[C@@H](CS)C(=O)O [NAC, N-acetyl-cysteine]",collagen-induced platelet aggregation (signalling inhibitors),[3],attenuated the collagen-induced platelet aggregation to a similar extent as ARI
same,collagen-induced phosphorylation of p38α MAPK (Western blot),[4],significantly reduced
same,level of oxidative stress and superoxide,[5],significantly reduced
same,surface expression of TX receptor (TP),[6],significantly attenuated
"COc1nccc(-c2c(-c3ccc(F)cc3)ncn2[C@H]2CC[C@H](O)CC2)n1 [SB239063, trans-4-[4-(4-fluorophenyl)-5-(2-methoxy-4-pyrimidinyl)-1H-imidazol-1-yl]cyclohexanol]",collagen-induced platelet aggregation (signalling inhibitors),[3],reduced platelet aggregation
same,collagen-induced TXB2 (TXA2) release (signalling inhibitors),[7],attenuated the collagen-induced TXB2 release
"O=C(O)CCC/C=C\C[C@@H]1[C@H](CNNC(=O)Nc2ccccc2)[C@H]2CC[C@@H]1O2 [SQ29548, 1S-[1-alpha,2-beta-(5Z),3-beta,4-alpha]-7-[3-[[2-[(phenylamino)carbonyl]hydrazino]methyl]-7-oxabicyclo[2.2.1]hept-2-yl]-5-heptenoic acid]",collagen-induced platelet aggregation (signalling inhibitors),[3],attenuated the collagen-induced platelet aggregation
same,collagen-induced TXB2 (TXA2) release (signalling inhibitors),[7],attenuated collagen-induced TXA2 release
COc1ccc2c(c1)CC[C@@H]1[C@@H]2CC[C@]2(C)[C@@H](NCCCCCCN3C(=O)C=CC3=O)CC[C@@H]12 [U73122],collagen-induced platelet aggregation (signalling inhibitors),[3],reduced platelet aggregation
same,collagen-induced phosphorylation of p38α MAPK (Western blot),[4],significantly reduced
same,collagen-induced TXB2 (TXA2) release (signalling inhibitors),[7],attenuated the collagen-induced TXB2 release
COc1cc(C(C)=O)ccc1O [apocynin],collagen-induced platelet aggregation (signalling inhibitors),[3],attenuated the collagen-induced platelet aggregation to a similar extent as ARI
same,level of oxidative stress and superoxide,[5],significantly reduced
same,surface expression of TX receptor (TP),[6],significantly attenuated
"CC(=O)Oc1ccccc1C(=O)O [aspirin, Acetylsalicylic Acid]",diabetic patients with residual TXB2 levels higher than 4 ng/mL with aspirin in vitro,[8]; aspirin 50 μg/mL added in vitro,2%
same,residual TXB2 generation after adding aspirin in vitro,"[8]; aspirin 50 μg/mL in vitro, diabetic patients and healthy subjects on aspirin 100 mg/day, blood clotted 1 h at 37° C.",further significant reduction
same,diabetic patients with residual serum TXB2 higher than 4 ng/mL,"[8]; ex vivo, 12 h after the last dose of aspirin 100 mg/day",12%
O=c1c(O)c(-c2ccc(O)c(O)c2)oc2cc(O)cc(O)c12 [quercetin],collagen-induced platelet aggregation (signalling inhibitors),[3],reduced platelet aggregation
same,collagen-induced phosphorylation of p38α MAPK (Western blot),[4],attenuated
